Literature values in US20240226212A1, “GENOMIC SEQUENCES FOR YEAST PROBIOTICS” (Worcester Polytechnic Institute, priority 2023, published 2024).

System: C. albicans

Structure (SMILES): OCCc1c[nH]c2ccccc12 [tryptophol]
- filamentation of C. albicans: shown to inhibit filamentation
